Values after ≈ are worked out from the molar mass of the structure shown. “Also recorded” adds a separate entry of the source. Read-outs that look alike come from different tables or passages of the source.
How the values were obtained:
[1] = tested on: vancomycin-resistant Enterococcus faecalis HM-201; test: Time-kill analysis; format: cell-based; settings: 4 × MIC, 24 hour incubation, 37 °C
[2] = tested on: vancomycin-resistant Enterococcus faecium HM-968; test: Multi-step resistance selection; format: cell-based; settings: one-fold increase = MIC x → 2x
[3] = tested on: E. faecalis and E. faecium; test: MIC and MBC against strains of E. faecalis and E. faecium; format: cell-based
[4] = tested on: vancomycin-resistant Enterococcus faecium ATCC 700221; test: Time-kill analysis; format: cell-based; settings: 4 × MIC, 24 hour incubation, 37 °C
[5] = tested on: vancomycin-resistant Enterococcus faecalis ATCC 51299; test: Multi-step resistance selection; format: cell-based; settings: one-fold increase = MIC x → 2x
[6] = tested on: vancomycin-resistant Enterococcus faecalis HM-201; test: C. elegans VRE infection model; format: in vivo, Caenorhabditis elegans; settings: 20 μg/mL, treated for 18 hours, relative to untreated worms
[7] = tested on: E. faecalis ATCC 51299; test: Checkerboard assay; format: cell-based, Enterococcus faecalis; settings: antibiotic in combination with compound 1
[8] = tested on: E. faecalis (ATCC 51299); test: Re-sensitization of VRE to gentamicin; format: cell-based, Enterococcus faecalis; settings: sub-inhibitory concentration of 1; data not shown
[9] = tested on: E. faecium (ATCC 700221); test: Re-sensitization of VRE to gentamicin; format: cell-based, Enterococcus faecium; settings: sub-inhibitory concentration of 1; data not shown
[10] = tested on: VRE; settings: administered orally, phase II clinical trial; cited from earlier work
[11] = tested on: E. coli ΔtolC; test: Bacterial Cytological Profiling; format: cell-based, Escherichia coli; settings: 5 × MIC (25 μg/mL), two hours
[12] = tested on: E. faecalis; test: MIC against E. faecalis isolates; settings: Enterococcus faecalis
[13] = tested on: Gram-negative pathogens; test: MIC against Gram-negative pathogens
[14] = polar aminoguanidine headgroup; source not stated; cited from earlier work
[15] = tested on: human colorectal (HRT-18) cells; test: MTS cytotoxicity assay; format: cell-based; settings: for Non-toxic up to (concentration): tested 5-40 μg/mL
[16] = human liver microsomes; cited from earlier work
[17] = tested on: C. elegans AU37; format: in vivo, Caenorhabditis elegans; settings: 20 μg/mL, 24 hours exposure
[18] = tested on: Caco-2; settings: polarized cell monolayer; ref not given; cited from earlier work
[19] = biological target: human FPPS (HsFPPS) (Homo sapiens, UniProt P14324); test: HsFPPS inhibition assay; format: biochemical; settings: data not shown
[20] = tested on: E. faecalis NR-31975; test: UDP-N-acetylmuramyl-pentapeptide accumulation; format: cell-based, Enterococcus faecalis; settings: 10 × MIC, 30 minutes
[21] = tested on: vancomycin-resistant S. aureus (VRSA); settings: cited from earlier work
[22] = tested on: MRSA; settings: topical; cited from earlier work
[23] = tested on: E. faecalis HM-934; test: Re-sensitization of VRE to vancomycin; format: cell-based, Enterococcus faecalis; settings: for MIC: Enterococcus faecalis; for Fold-improvement in MIC of vancomycin: with ½ × MIC Compound 1
[24] = tested on: E. faecalis HM-201; test: Re-sensitization of VRE to vancomycin; format: cell-based, Enterococcus faecalis; settings: for MIC: Enterococcus faecalis; for Fold-improvement in MIC of vancomycin: with ½ × MIC Compound 1
[25] = tested on: E. faecium ATCC 700221; test: Re-sensitization of VRE to vancomycin; format: cell-based, Enterococcus faecium; settings: for Fold-improvement in MIC of vancomycin: with ½ × MIC Compound 1
[26] = tested on: E. faecium HM-968; test: Re-sensitization of VRE to vancomycin; format: cell-based, Enterococcus faecium; settings: for MIC: Enterococcus faecium; for Fold-improvement in MIC of vancomycin: with ½ × MIC Compound 1
[27] = strains of E. faecalis and E. faecium
[28] = Gram-negative pathogens of Table 1, compound alone
[29] = K. pneumoniae, P. aeruginosa and E. coli, tested alone
[30] = K. pneumoniae, P. aeruginosa and E. coli, with sub-inhibitory colistin

Chain of human FPPS (HsFPPS) (P14324 whole entry): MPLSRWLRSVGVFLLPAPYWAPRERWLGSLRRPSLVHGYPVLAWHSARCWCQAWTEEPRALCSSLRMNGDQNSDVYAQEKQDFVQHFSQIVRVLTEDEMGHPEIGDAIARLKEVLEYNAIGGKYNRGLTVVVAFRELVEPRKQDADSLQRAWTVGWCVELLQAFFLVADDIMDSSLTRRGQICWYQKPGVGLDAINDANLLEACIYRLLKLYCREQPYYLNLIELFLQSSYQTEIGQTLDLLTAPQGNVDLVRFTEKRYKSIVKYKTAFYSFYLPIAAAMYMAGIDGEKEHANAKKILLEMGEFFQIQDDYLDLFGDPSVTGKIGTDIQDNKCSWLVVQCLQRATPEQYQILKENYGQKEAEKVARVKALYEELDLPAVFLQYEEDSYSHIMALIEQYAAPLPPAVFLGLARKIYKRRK

CC(=O)NC[C@H]1CN(c2ccc(N3CCOCC3)c(F)c2)C(=O)O1 [Linezolid, reference compound]
Time-kill result (complete eradication of bacteria) [1]: not able to generate a 10^3 × reduction in VRE CFU over 24 hours
Shift in MIC over 14 serial passages [2]: one-fold increase
MBC relative to MIC [3, 27]: more than four-fold higher
Time-kill result (complete eradication of bacteria) [4]: not able to generate a 10^3 × reduction in VRE CFU over 24 hours
Shift in MIC over 14 serial passages [5]: No increase in MIC
Decrease in VRE burden in infected worms [6]: unable to reduce the burden of VRE

C[C@H]1c2cccc(O)c2C(=O)C2=C(O)[C@]3(O)C(=O)C(C(N)=O)=C(O)[C@@H](N(C)C)[C@@H]3[C@@H](O)[C@@H]21 [doxycycline]
FIC index [7]: 2.00

CNC(C)C1CCC(N)C(OC2C(N)CC(N)C(OC3OCC(C)(O)C(NC)C3O)C2O)O1 (stereo not shown) [gentamicin]
Resensitization to gentamicin [8]: unable to resensitize
Resensitization to gentamicin [9]: unable to resensitize

O=C(O)c1cn(C2CC2)c2cc(N3CCNCC3)c(F)cc2c1=O [ciprofloxacin]
FIC index [7]: 0.50

CC1(C)S[C@@H]2[C@H](NC(=O)[C@H](N)c3ccccc3)C(=O)N2[C@H]1C(=O)O [ampicillin]
FIC index [7]: 3.00

Ramoplanin
Patients with suppressed gastrointestinal colonization of VRE [10]: up to 90%

CCCCc1ccc(-c2nc(C)c(/C(C)=N/NC(=N)N)s2)cc1 [Compound 1]
Cytological effect [11]: cells lysed and formed spheroplasts
Time-kill result (complete eradication of bacteria) [1]: within two hours
MIC [12]: 1 to 8 µg/mL (≈ 3.04 to 24.3 µM)
MIC [13, 28]: 8 to 64 µg/mL (≈ 24.3 to 194 µM)
Shift in MIC over 14 serial passages [2]: no shift in the MIC
MBC relative to MIC [3, 27]: equal to or one-fold higher
pKa [14]: ~ 7
Non-toxic up to (concentration) ([15]; 24 hours incubation): 20 µg/mL
Non-toxic up to (concentration) ([15]; two hours incubation): 20 µg/mL
Time-kill result (complete eradication of bacteria) [4]: within two hours
Affinity to hepatic microsomal enzymes [16]: high affinity to hepatic microsomal enzymes
Percent viable worms [17]: All worms survived
Caco-2 permeability, apical to basolateral [18]: limited ability to cross from the apical to basolateral surface
Inhibition of FPPS [19]: no inhibition
UDP-N-acetylmuramyl pentapeptide accumulation [20]: large increases
Shift in MIC over 14 serial passages [5]: one-fold increase
Resensitization of VRSA to vancomycin [21]: resensitizes; also recorded: capable of resensitizing

CCCCC#Cc1ccc(-c2nc(C)c(/C(C)=N/NC(=N)N)s2)cc1 [Compound 3]
Time-kill result (complete eradication of bacteria) [1]: within two hours
MIC [12]: 1 to 8 µg/mL (≈ 2.83 to 22.6 µM)
MIC [13, 28]: > 128 µg/mL
MIC [13, 29]: > 128 µg/mL
MIC [13, 30]: 1 to 4 µg/mL (≈ 2.83 to 11.3 µM)
Shift in MIC over 14 serial passages [2]: no shift in the MIC
MBC relative to MIC [3, 27]: equal to or one-fold higher
pKa [14]: ~ 7
Toxic at (concentration) ([15]; 24 hours incubation): 40 µg/mL
Non-toxic up to (concentration) ([15]; 24 hours incubation): 20 µg/mL
Non-toxic up to (concentration) ([15]; two hours incubation): 40 µg/mL
Time-kill result (complete eradication of bacteria) [4]: four hours
Caco-2 permeability, apical to basolateral [18]: limited ability to cross from the apical to basolateral surface
Reduction of MRSA burden in infected skin wounds [22]: 96%
Shift in MIC over 14 serial passages [5]: one-fold increase

CN[C@H](CC(C)C)C(=O)N[C@H]1C(=O)N[C@@H](CC(N)=O)C(=O)N[C@H]2C(=O)N[C@H]3C(=O)N[C@H](C(=O)N[C@H](C(=O)O)c4cc(O)cc(O)c4-c4cc3ccc4O)[C@H](O)c3ccc(c(Cl)c3)Oc3cc2cc(c3O[C@@H]2O[C@H](CO)[C@@H](O)[C@H](O)[C@H]2O[C@H]2C[C@](C)(N)[C@H](O)[C@H](C)O2)Oc2ccc(cc2Cl)[C@H]1O [Vancomycin]
MIC ([23]; HM934, read-out: MIC of vancomycin, + ½ × MIC Compound 1): > 128 µg/mL
MIC ([23]; HM934, read-out: MIC of vancomycin, vancomycin alone): > 512 µg/mL
Fold-improvement in MIC of vancomycin [23]: No change
Fold-improvement in MIC of vancomycin ([23]; listed as vancomycin): no resensitization
MIC ([24]; HM201, read-out: MIC of vancomycin, + ½ × MIC Compound 1): > 128 µg/mL
MIC ([24]; HM201, read-out: MIC of vancomycin, vancomycin alone): 512 µg/mL
Fold-improvement in MIC of vancomycin [24]: No change
Fold-improvement in MIC of vancomycin ([24]; listed as vancomycin): no resensitization
MIC ([25]; Enterococcus faecium, ATCC700221, read-out: MIC of vancomycin, vancomycin alone): 256 µg/mL
Fold-improvement in MIC of vancomycin [25]: 256-fold
Fold-improvement in MIC of vancomycin ([25]; listed as vancomycin): 256 fold
MIC ([26]; HM968, read-out: MIC of vancomycin, + ½ × MIC Compound 1): > 128 µg/mL
MIC ([26]; HM968, read-out: MIC of vancomycin, vancomycin alone): 1020 µg/mL
Fold-improvement in MIC of vancomycin [26]: No change
Fold-improvement in MIC of vancomycin ([26]; listed as vancomycin): no resensitization
UDP-N-acetylmuramyl pentapeptide accumulation [20]: large increases

C/C(=N\NC(=N)N)c1sc(-c2ccc(-c3ccccc3)cc2)nc1C [Compound 2]
Time-kill result (complete eradication of bacteria) [1]: within two hours
MIC [12]: 16 µg/mL (≈ 45.8 µM)
MIC [13, 28]: > 128 µg/mL
MIC [13, 29]: > 128 µg/mL
MIC [13, 30]: 1 to 4 µg/mL (≈ 2.86 to 11.4 µM)
Shift in MIC over 14 serial passages [2]: one-fold increase
MBC relative to MIC ([3]; against E. faecium): more than four-fold higher
pKa [14]: ~ 7
Toxic at (concentration) ([15]; 24 hours incubation): 40 µg/mL
Non-toxic up to (concentration) ([15]; 24 hours incubation): 20 µg/mL
Non-toxic up to (concentration) ([15]; two hours incubation): 40 µg/mL
Time-kill result (complete eradication of bacteria) [4]: not capable of completely eradicating the bacteria
Shift in MIC over 14 serial passages [5]: a one-fold increase in MIC was observed after the sixth passage and an additional two-fold increase was observed after the eleventh passage
Resensitization of VRSA to vancomycin [21]: capable of resensitizing

CC[C@H]1OC(=O)[C@H](C)[C@@H](O[C@H]2C[C@@](C)(OC)[C@@H](O)[C@H](C)O2)[C@H](C)[C@@H](O[C@@H]2O[C@H](C)C[C@H](N(C)C)[C@H]2O)[C@](C)(O)C[C@@H](C)C(=O)[C@H](C)[C@@H](O)[C@]1(C)O [Erythromycin, reference compound]
MIC [13]: > 128 µg/mL
MIC [13, 30]: 0.5 to 1 µg/mL (≈ 0.681 to 1.36 µM)

Reference: article PMC5437844 (Journal of medicinal chemistry, 2017)
